What was measured:
Hdy-HIF-1α = assay: Immunoblot of HIF-1α / hydroxylated HIF-1α levels in HeLa cells; assay type: cell-based, Human
Experimental: (§1) Cell culture. Human cell lines HeLa, U2OS and HEK 293, purchased from ATCC, were propagated in DMEM supplemented with 10% fetal bovine serum (FBS), L- glutamine, 100 μg ml^−1 of penicillin/streptomycin at 37 °C and 5% CO2. Cells were maintained for no more than 30 passages. All cell lines were routinely tested for mycoplasma contamination using MycoAlert kit from Lonza. For compound treatment experiments, cells were transferred in six-well plates with either 3 × 10^5 or 5 × 10^5 cells per well in 2 ml of media. At 80% confluence, cells were treated with compounds at the desired concentration, reaching final DMSO concentration of 0.1% v/v. Cells were incubated at 37 °C and 5% CO2 for the desired time before harvesting.
(§2) Immunoblotting. Cells were lysed in lysis buffer (20 mM Tris pH 8, 150 mM NaCl, 1% Triton × 100) and a protease inhibitor cocktail (Roche) per 10 ml buffer. For protein extracts, the dishes were placed on ice. The media was aspirated and the tissue layer washed twice with ice-cold phosphate buffer saline (PBS). Lysis buffer (120 μl) was added and the cells detached from the surface with a cell scraper. After removal of the insoluble fraction by centrifugation, the protein concentration of the supernatant was determined by Pierce™ Coomassie (Bradford) Protein Assay Kit. Protein extracts were fractionated by SDS-PAGE on 4–12% Tris-Acetate NuPage® Novex® (Life Technologies) polyacrylamide gels and transferred to a nitrocellulose membrane using wet transfer. The membrane was then blocked with 5 % w/v Bovine serum albumin (BSA) in Tris-buffered saline (TBS) with 0.1% w/v Tween-20. For detecting proteins the following primary antibodies in the given concentrations were used: anti-β-Actin (Cell Signaling Technology, 4970S, 13E5) 1:2000, anti-VHL (Cell Signaling Technology, #68547) 1:1000, anti-Hif-1α (BD Biosciences, 610959, clone 54) 1:1,000, anti-hydroxy-HIF-1α (Hyp564) (Cell Signaling Techonology; #3434) 1:1,000, anti-PHD2 (Bethyl Laboratories; A300-322A) 1:1,000, anti-PHD3 (Bethyl Laboratories; A300-327A) 1:1000, anti-CRBN (Proteintech; 11435-1-AP) 1:1,000. Following incubation with a horseradish peroxidase-conjugated secondary antibody (Cell Signaling Technology), the signal was developed using enhanced chemiluminescence (ECL) Western Blotting Detection Kit (Amersham) on Amersham Hyperfilm ECL film (Amersham). Band quantification was performed using ImageJ software and reported as relative amount as ratio of the each protein band relative to the lane’s loading control. The values obtained were then normalized to 0.1% DMSO vehicle control. See Supplementary Fig. 12 for full-scanned images of western-blots shown in the main text figures.

pVHL19 [1] = target: T1, pVHL19 (Homo sapiens, UniProt P40337); parameters: made in house; method as in PMID 25166285; settings: ITC, ref [18]; cited from earlier work
Target sequence in this assay (P40337 54-213): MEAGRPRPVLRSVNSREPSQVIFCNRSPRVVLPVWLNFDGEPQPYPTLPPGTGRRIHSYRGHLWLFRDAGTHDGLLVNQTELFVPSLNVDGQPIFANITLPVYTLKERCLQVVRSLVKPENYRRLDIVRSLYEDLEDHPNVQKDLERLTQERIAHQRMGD
Target sequence in this assay (Q15369 17-112 partner limits assumed): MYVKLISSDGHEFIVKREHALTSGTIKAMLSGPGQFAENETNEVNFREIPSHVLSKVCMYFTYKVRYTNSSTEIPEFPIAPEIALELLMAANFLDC
Target sequence in this assay (Q15370 1-104 partner limits assumed): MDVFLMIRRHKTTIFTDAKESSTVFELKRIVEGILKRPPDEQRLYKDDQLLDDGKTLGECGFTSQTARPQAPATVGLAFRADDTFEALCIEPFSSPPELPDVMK

HIF-1α = assay: TMT MS proteomics in HeLa cells, HIF-1α level; assay type: cell-based, Human; settings: 150 µM, 10 h
Experimental: MS proteomics. Sample preparation. HeLa cells were seeded at 5 × 10^6 on a 10 cm plate 16 h before treatment. […] Cells were incubated at 37 °C and 5% CO2 for 10 h before harvesting. Cells were placed on ice and medium was removed and cells were washed twice with cold PBS. Cells were lysed in 0.5 ml of 100 mM Tris pH 8.0, 4% (w/v) SDS supplemented with protease inhibitor cocktail (Roche). The lysate was pulse sonicated briefly and then centrifuged at 17,000 × g for 15 min at 4 °C. The supernatant fraction of cell extract was snap-frozen in liquid nitrogen and stored in −80 °C freezer. Further sample processing, digestion, desalting, labeling and fractionation were performed as previously described.
nLC-MS/MS analysis. The TMT 10plex fractions were first analyzed as previously described. Briefly, the TMT 10plex fractions were analyzed sequentially on a Q Exactive HF Hybrid Quadrupole-Orbitrap Mass Spectrometer (Thermo Scientific) coupled to an UltiMate 3000 RSLCnano UHPLC system (Thermo Scientific) and EasySpray column (75 μm × 50 cm, PepMap RSLC C18 column, 2 μm, 100 Å, Thermo Scientific). The MS2 isolation window was set to 0.4 Da and the resolution set at 120,000. MS2 resolution was set at 60,000. […] After the first analysis, the TMT labeled fractions were re-analyzed on the Q-Exactive HF using the same instrument settings and a target list generated from a theoretical trypsin digest of VHL. […]

pVHL19 [2] = target: T1, pVHL19; assay: Immunoblot of pVHL19 protein level in HeLa cells after compound treatment; assay type: cell-based; parameters: endogenous in cells; host or cells: HeLa; settings: 10 h, read-out: pVHL19 band quantification normalized to 0.1% DMSO
Experimental: as §1, §2
Target sequence in this assay (P40337 54-213): as the sequence (P40337 54-213) above
Target sequence in this assay (Q15369 whole entry partner): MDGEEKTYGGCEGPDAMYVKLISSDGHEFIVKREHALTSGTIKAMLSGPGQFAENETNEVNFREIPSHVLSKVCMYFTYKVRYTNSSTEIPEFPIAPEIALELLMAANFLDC
Target sequence in this assay (Q15370 whole entry partner): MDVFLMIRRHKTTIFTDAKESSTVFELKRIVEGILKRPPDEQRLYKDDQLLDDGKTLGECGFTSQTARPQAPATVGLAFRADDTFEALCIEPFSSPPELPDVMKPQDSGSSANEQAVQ

pVHL30 = pVHL30 (Homo sapiens, UniProt P40337); assay: Immunoblot of pVHL30 protein level in HeLa cells after compound treatment; assay type: cell-based; parameters: endogenous in cells; host or cells: HeLa; settings: 10 h, read-out: pVHL30 band quantification normalized to 0.1% DMSO
Chain of pVHL30 (P40337 whole entry): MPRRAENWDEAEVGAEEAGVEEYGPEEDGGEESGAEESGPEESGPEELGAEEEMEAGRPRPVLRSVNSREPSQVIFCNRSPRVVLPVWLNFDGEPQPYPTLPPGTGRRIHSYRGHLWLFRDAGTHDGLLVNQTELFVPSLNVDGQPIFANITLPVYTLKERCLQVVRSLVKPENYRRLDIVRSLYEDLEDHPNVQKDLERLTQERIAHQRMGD
Experimental: as §1, §2

## CC(=O)N[C@H](C(=O)N1C[C@H](O)C[C@H]1C(=O)NCc1ccc(-c2scnc2C)cc1)C(C)(C)C [VH032, reference compound]
Hdy-HIF-1α; HeLa, 1 µM
  effect on HIF-1α at 1 µM: completely ineffective
Hdy-HIF-1α; inhibitory concentration of the ligand alone in cells
  concentration at which active in cells: ~ 100 µM
pVHL19 [1]
  ΔG: –9.17 ± 0.02 kcal mol^−1
  ΔH: –5.53 ± 0.01 kcal mol^−1
  −TΔS: –3.65 ± 0.02 kcal mol^−1
HIF-1α
  protein levels of HIF-1α: increased
pVHL19 [2]
  remaining activity at 150 µM: 113%
pVHL30
  remaining pVHL30 protein level at 150 µM: 127%
